According to PubChem BioAssay (NCI):
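These data come from cells grown in 96-well plates and exposed to compound for 48 hours at five concentrations. GI50: concentration for 50% inhibition of growth. TGI is the concentration that stops growth completely.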 The source made the active and inactive calls. No stated cut-off is given here; in the data, active means GI50 below about 0.43 µM; inactive means the rest.

Legend:
Assay in all cases: NCI anticancer screen, dose series, 48 h
CAKI-1 renal = tested on: CAKI-1 renal
UACC-62 melanoma = tested on: UACC-62 melanoma
MALME-3M melanoma = tested on: MALME-3M melanoma
HCT-116 colon = tested on: HCT-116 colon
OVCAR-3 ovarian = tested on: OVCAR-3 ovarian
HCC-2998 colon = tested on: HCC-2998 colon
CCRF-CEM leukemia = tested on: CCRF-CEM leukemia
SK-MEL-28 melanoma = tested on: SK-MEL-28 melanoma

SMILES | GI50 (CAKI-1 renal) | TGI (CAKI-1 renal) | GI50 (UACC-62 melanoma) | TGI (UACC-62 melanoma) | GI50 (MALME-3M melanoma) | TGI (MALME-3M melanoma) | GI50 (HCT-116 colon) | TGI (HCT-116 colon) | GI50 (OVCAR-3 ovarian) | TGI (OVCAR-3 ovarian) | GI50 (HCC-2998 colon) | TGI (HCC-2998 colon) | GI50 (CCRF-CEM leukemia) | TGI (CCRF-CEM leukemia) | GI50 (SK-MEL-28 melanoma) | TGI (SK-MEL-28 melanoma) | outcome (HCT-116 colon) | outcome (OVCAR-3 ovarian) | outcome (HCC-2998 colon)
CC/C=C\C[C@H](F)C/C=C1/C(=O)C=C[C@@H]1C/C=C\CCCC(=O)O | 6.52 µM | 22.5 µM | 4.29 µM | 11.1 µM | 8.08 µM | 23.2 µM | 1.34 µM | 4.78 µM | 7.96 µM | 22.1 µM | 6.93 µM | 12.2 µM | 1.05 µM | 11.1 µM | 4.98 µM | 11.4 µM |  |  | 
COc1ccc(-c2onc(N)c2-c2cc(OC)c3c(c2)OCO3)cc1 | 3.58 µM | > 100 µM | 1.96 µM | > 46.9 µM | 6.1 µM | > 100 µM | 2.32 µM | 50 µM | 2.08 µM | 7.08 µM | 3.7 µM | > 87.7 µM | 1.81 µM | > 88.6 µM | 3.84 µM | > 100 µM |  |  | 
Cc1ccc2c(c1)Sc1c(ccc3ccccc13)N2 | 15.3 µM | > 100 µM | 73.8 µM | > 100 µM | > 100 µM | > 100 µM | 8.37 µM | > 100 µM | > 100 µM | > 100 µM | 98.7 µM | > 100 µM | 12.4 µM | > 100 µM | > 100 µM | > 100 µM |  |  | 
COCCCNC(=O)C1C(=O)C(=O)N(CCCOC)C1=O (centres undefined) |  | > 100 µM |  | > 100 µM |  | > 100 µM |  | > 100 µM |  | > 100 µM |  | > 100 µM |  | > 100 µM |  | > 100 µM |  |  | 
O=C(CCc1nnc2sc(-c3ccc(Cl)cc3Cl)nn12)c1nc2ccccc2[nH]1 | 2.22 µM | 5.45 µM | 1.19 µM | 2.62 µM | 0.821 µM | 3.52 µM | 0.247 µM | 0.692 µM | 0.491 µM | 1.71 µM | 1.42 µM | 2.92 µM | 0.265 µM | 0.974 µM | 0.452 µM | 1.68 µM |  |  | 
CC/C=C\C[C@@H](O)C/C=C1/C(=O)C=C[C@H]1C/C=C\CCCC(=O)OC | 3.57 µM | 13.5 µM | 2.8 µM | 8.6 µM | 2.87 µM | 9.3 µM | 0.498 µM | 2.53 µM | 3.1 µM | 10.3 µM | 2.1 µM | 3.61 µM | 0.461 µM | 4.36 µM | 2.1 µM | 5.34 µM |  |  | 
O=C(CCN(C(=O)O)S(=O)(=O)c1ccc(NC(=O)c2ccccc2)cc1)NC1CCCCC1 |  | > 100 µM |  | > 100 µM |  | > 100 µM |  | > 100 µM |  | > 100 µM |  | > 100 µM |  | > 100 µM |  | > 100 µM |  |  | 
O=C(Nc1ccncc1)C(=O)c1cn(S(=O)(=O)c2cccc(F)c2)c2ccccc12 | 3.16 µM | > 100 µM | 2.96 µM | > 100 µM | 12.8 µM | > 100 µM | 1.38 µM | > 100 µM | 2.65 µM | 12.5 µM | 2.2 µM | 89.3 µM | 2.58 µM | > 100 µM | 4.74 µM | 60.5 µM |  |  | 
COc1ccc(NC(=O)CC(=O)N/N=C/c2ccc(N(CCC#N)S(C)(=O)=O)cc2)cc1 |  | > 100 µM |  | > 100 µM |  | > 100 µM |  | > 100 µM |  | > 100 µM |  | > 100 µM |  | > 100 µM |  | > 100 µM |  |  | 
COc1ccc(N2C(=O)/C(=C/c3ccc(N(CCC#N)CCC#N)cc3C)N=C2c2cc([N+](=O)[O-])ccc2Cl)cc1 |  | > 36.3 µM |  | > 46.4 µM |  | > 56.2 µM |  | 29.3 µM |  | 11.3 µM |  | 15.2 µM |  | 37.7 µM |  | > 63.1 µM |  |  | 
CC1CN1C(=O)NCCCCCCNC(=O)N1CC1C (centres undefined) |  | > 100 µM |  | > 100 µM |  | > 100 µM |  | > 100 µM |  | > 100 µM |  | > 100 µM |  | > 93 µM |  | > 100 µM |  |  | 
O=[N+]([O-])c1ccc(C=NC2CCCCC2)cc1 |  | > 100 µM |  | > 100 µM |  | > 100 µM |  | > 100 µM |  | > 100 µM |  | > 100 µM |  | > 100 µM |  | > 100 µM |  |  | 
CC[C@@]1(c2ccccc2)C2=C(CC(C)(C)CC2=O)Nc2[nH]ncc21 | 51.9 µM | > 100 µM | > 100 µM | > 100 µM | > 100 µM | > 100 µM | > 100 µM | > 100 µM | > 100 µM | > 100 µM | > 100 µM | > 100 µM | 31.8 µM | > 100 µM | > 100 µM | > 100 µM |  |  | 
NC(=O)COC(=O)c1c(Cl)nc2sccn12 |  | > 100 µM |  | > 100 µM |  | > 100 µM |  | > 31.6 µM |  | > 62.6 µM |  | > 100 µM |  | > 31.6 µM |  | > 100 µM |  |  | 
CCCC(=O)OCC1OC(n2cnc3c(=S)nc[nH]c32)C(OC(=O)CCC)C1OC(=O)CCC (centres undefined) | 2.51 µM | 23.5 µM | 1.91 µM | > 100 µM | 38.5 µM | > 100 µM | 4 µM | > 100 µM | 0.92 µM | > 100 µM | 2.92 µM | > 100 µM | 1.79 µM | 17.4 µM | 77.5 µM | > 100 µM |  |  | 
CCCC1N2CCCCC2[C@@H]2c3[nH]c4ccccc4c3CCN12 (some centres undefined) |  | > 100 µM |  | > 100 µM |  | > 100 µM |  | > 100 µM |  | > 100 µM |  | > 100 µM |  | > 100 µM |  | > 100 µM |  |  | 
O=C(O)CCNC1CCCCC1 | > 100 µM | > 100 µM | > 100 µM | > 100 µM | > 100 µM | > 100 µM | > 100 µM | > 100 µM | > 100 µM | > 100 µM | > 100 µM | > 100 µM | > 100 µM | > 100 µM | > 100 µM | > 100 µM |  |  | 
Nc1cccc(S(=O)(=O)NCC(=O)O)c1 |  | > 100 µM |  | > 100 µM |  | > 100 µM |  | > 100 µM |  | > 100 µM |  | > 100 µM |  | > 100 µM |  | > 100 µM |  |  | 
NC1=NC(c2ccccc2)CC(c2cc(Cl)ccc2O)=N1 (centres undefined) |  | 30.1 µM |  | 30.4 µM |  | 38 µM |  | 27.6 µM |  | 31.6 µM |  | 29.4 µM |  | 51.8 µM |  | 33.5 µM |  |  | 
Cc1cc2c(cc1Cl)SC1=NN(C)S(=O)N1S2(=O)=O (centres undefined) | > 100 µM | > 100 µM | 88.4 µM | > 100 µM | > 100 µM | > 100 µM | > 100 µM | > 100 µM | > 100 µM | > 100 µM | > 100 µM | > 100 µM | > 100 µM | > 100 µM | > 100 µM | > 100 µM |  |  | 
NC(=O)NS(=O)(=O)c1ccc(N2N=C(C(F)(F)F)CC2c2cc(C(F)(F)F)cc(C(F)(F)F)c2)cc1 (centres undefined) | 5 µM | 19.5 µM | 10.4 µM | 22.7 µM | 13.9 µM | 39.9 µM | 3.07 µM | 14.7 µM | 1.83 µM | 4.12 µM | 10 µM | 23.9 µM | 2.94 µM | 19.9 µM | 4.39 µM | 16.7 µM |  |  | 
C=C(C[C@](O)(C(=O)/C=C/c1ccc(Cl)cc1)C(=O)OC)c1ccccc1 | 7 µM | 20.7 µM | 2.03 µM | 4.58 µM | 12.4 µM | 26.5 µM | 1.92 µM | 3.96 µM | 1.56 µM | 3.08 µM | 1.84 µM | 3.42 µM | 2.86 µM | 13 µM | 2.04 µM | 4.98 µM |  |  | 
C#CCNC(=O)c1cccc2c1cc(C)n2-c1nc2c(c(NCc3ccccc3)n1)CCCC2 | 0.0289 µM | 0.176 µM | 0.0158 µM | 0.0359 µM | 0.00311 µM | 0.0114 µM | 0.0109 µM | 0.0378 µM | 0.0236 µM | 0.057 µM | 0.0164 µM | 0.0331 µM | 0.235 µM | 0.945 µM | 0.035 µM | 0.123 µM |  |  | 
COc1ccc(C(=O)C#Cc2cnc(OC)nc2OC)cc1 | 25300 µM |  | 31900 µM | 2.8 µM | 16600 µM |  |  | 2.75 µM |  | 3.24 µM |  | 3.83 µM | 2530 µM | 10800 µM | 89800 µM | 3.47 µM | inactive | inactive | inactive
Cn1c2ccccc2c2ccc3c(c21)C(=O)c1ccccc1C3=O |  | 67 µM |  | 38.3 µM |  | 24.5 µM |  | 40.6 µM |  | 26.8 µM |  | > 100 µM |  | 13.1 µM |  | 29.4 µM |  |  | 
Nc1nc(N(Cc2ccccc2)c2ccccc2)c2cn[nH]c2n1 | 3.67 µM | > 100 µM | 4.32 µM | > 100 µM | 4.23 µM | > 100 µM | 3.19 µM | > 100 µM | 3.34 µM | 41.1 µM | 6.41 µM | > 100 µM | 4.32 µM | > 100 µM | 16.9 µM | > 100 µM |  |  | 
COc1ccc2c(c1)[n+](=O)c(C(=O)C/C(=N/OCCCc1ccccc1)C(=O)NC13CC4CC(CC(C4)C1)C3)c(C)n2[O-] |  | > 100 µM |  | > 100 µM |  | > 100 µM |  | > 100 µM |  | > 100 µM |  | > 100 µM |  | > 100 µM |  | > 100 µM |  |  | 
